# Experimental data as given in the kinase profiling compilation of Christmann-Franck et al. (2016).
# Tests used:
# Assay in all cases: Caliper, Mobility shift assay off-chip
# [1] = molecular target: RPS6KA4 KD1 KD2 (human) (UniProt O75676)
# [2] = molecular target: AURKA (human) (UniProt O14965)
# [3] = molecular target: LIMK1 (human) (UniProt P53667)
# [4] = molecular target: RET (human) (UniProt P07949)
# [5] = molecular target: AXL (human) (UniProt P30530)
# [6] = molecular target: CAMK4 (human) (UniProt Q16566)
# [7] = molecular target: DAPK3 (human) (UniProt O43293)
# [8] = molecular target: PRKCD (human) (UniProt Q05655)
# [9] = molecular target: EPHA3 (human) (UniProt P29320)
# [10] = molecular target: HIPK2 (human) (UniProt Q9H2X6)
# [11] = molecular target: WNK3 (human) (UniProt Q9BYP7)
# [12] = molecular target: FGFR2 (human) (UniProt P21802)
# [13] = molecular target: NTRK2 (human) (UniProt Q16620)
# [14] = molecular target: PTK2B (human) (UniProt Q14289)
# [15] = molecular target: ABL2 (human) (UniProt P42684)
# [16] = molecular target: STK11 (human) (UniProt Q15831)
# [17] = molecular target: MAPK10 (human) (UniProt P53779)
# [18] = molecular target: FYN (human) (UniProt P06241)
# [19] = molecular target: CHEK2 (human) (UniProt O96017)
# [20] = molecular target: PDPK1 (human) (UniProt O15530)
# [21] = molecular target: MST1R (human) (UniProt Q04912)
# [22] = molecular target: EPHB3 (human) (UniProt P54753)
# [23] = molecular target: RPS6KA3 KD1 KD2 (human) (UniProt P51812)
# [24] = molecular target: ERBB4 (human) (UniProt Q15303)
# [25] = test system: PDGFRA (human), P16234 [D842V]
# [26] = test system: EGFR (human), P00533 [T790M]
# [27] = molecular target: PAK3 (human) (UniProt O75914)
# [28] = molecular target: MYLK3 (human) (UniProt Q32MK0)
# [29] = molecular target: PASK (human) (UniProt Q96RG2)
# [30] = molecular target: EPHB1 (human) (UniProt P54762)
# [31] = test system: CHEK2 (human), O96017 [I157T]
# [32] = molecular target: GRK5 (human) (UniProt P34947)
# [33] = molecular target: CAMK2D (human) (UniProt Q13557)
# [34] = molecular target: PIM3 (human) (UniProt Q86V86)
# [35] = molecular target: CSNK1D (human) (UniProt P48730)
# [36] = molecular target: CDK5 CDK5R1 p35 (human) (UniProt Q00535+Q15078)
# [37] = test system: MAPK14 (human), Q16539 [T106M]
# [38] = molecular target: GRK6 (human) (UniProt P43250)
# [39] = molecular target: EEF2K (human) (UniProt O00418)
# [40] = molecular target: CAMK2B (human) (UniProt Q13554)
# [41] = molecular target: CDK2 CCNE1 (human) (UniProt P24864+P24941)
# PRKCD (human), sequence (Q05655 whole entry, looked up): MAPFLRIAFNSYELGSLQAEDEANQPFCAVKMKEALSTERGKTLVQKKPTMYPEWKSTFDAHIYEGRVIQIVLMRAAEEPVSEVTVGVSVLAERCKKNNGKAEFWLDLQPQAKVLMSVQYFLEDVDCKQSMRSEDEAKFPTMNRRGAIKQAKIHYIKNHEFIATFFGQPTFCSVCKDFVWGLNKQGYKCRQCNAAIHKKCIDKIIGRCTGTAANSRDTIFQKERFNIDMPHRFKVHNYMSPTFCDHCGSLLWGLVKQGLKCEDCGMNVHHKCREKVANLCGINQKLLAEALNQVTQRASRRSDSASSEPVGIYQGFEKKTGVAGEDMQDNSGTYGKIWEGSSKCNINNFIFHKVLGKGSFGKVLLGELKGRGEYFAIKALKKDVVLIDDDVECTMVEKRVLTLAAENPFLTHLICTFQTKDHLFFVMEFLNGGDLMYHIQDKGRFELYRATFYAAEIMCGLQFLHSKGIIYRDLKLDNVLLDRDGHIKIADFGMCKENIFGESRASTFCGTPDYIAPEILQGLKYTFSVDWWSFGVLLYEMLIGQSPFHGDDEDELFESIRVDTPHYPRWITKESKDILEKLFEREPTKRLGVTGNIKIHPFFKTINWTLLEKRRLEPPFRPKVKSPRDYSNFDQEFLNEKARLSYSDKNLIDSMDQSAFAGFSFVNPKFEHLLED
# RPS6KA4 KD1 KD2 (human), sequence (O75676 whole entry, looked up): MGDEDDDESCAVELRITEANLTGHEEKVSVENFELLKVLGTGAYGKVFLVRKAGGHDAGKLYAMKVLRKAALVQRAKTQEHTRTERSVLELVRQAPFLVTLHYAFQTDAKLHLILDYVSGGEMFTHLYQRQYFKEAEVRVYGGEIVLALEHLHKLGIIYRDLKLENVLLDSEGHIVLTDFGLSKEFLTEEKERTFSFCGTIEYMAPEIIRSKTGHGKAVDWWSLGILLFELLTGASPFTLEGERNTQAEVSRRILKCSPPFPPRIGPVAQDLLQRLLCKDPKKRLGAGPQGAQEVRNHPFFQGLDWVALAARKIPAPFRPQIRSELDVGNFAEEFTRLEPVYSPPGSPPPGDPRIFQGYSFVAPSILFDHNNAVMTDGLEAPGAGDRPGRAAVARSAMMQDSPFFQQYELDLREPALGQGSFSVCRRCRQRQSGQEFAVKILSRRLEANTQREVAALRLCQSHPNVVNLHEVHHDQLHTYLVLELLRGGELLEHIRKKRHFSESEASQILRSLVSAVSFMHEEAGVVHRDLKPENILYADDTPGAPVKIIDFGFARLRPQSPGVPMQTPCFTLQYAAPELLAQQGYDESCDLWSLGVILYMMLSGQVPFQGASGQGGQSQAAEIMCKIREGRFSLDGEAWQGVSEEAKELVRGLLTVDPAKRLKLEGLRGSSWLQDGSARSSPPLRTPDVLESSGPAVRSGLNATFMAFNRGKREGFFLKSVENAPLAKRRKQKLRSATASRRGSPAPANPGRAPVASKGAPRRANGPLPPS
# RET (human), sequence (P07949 whole entry, looked up): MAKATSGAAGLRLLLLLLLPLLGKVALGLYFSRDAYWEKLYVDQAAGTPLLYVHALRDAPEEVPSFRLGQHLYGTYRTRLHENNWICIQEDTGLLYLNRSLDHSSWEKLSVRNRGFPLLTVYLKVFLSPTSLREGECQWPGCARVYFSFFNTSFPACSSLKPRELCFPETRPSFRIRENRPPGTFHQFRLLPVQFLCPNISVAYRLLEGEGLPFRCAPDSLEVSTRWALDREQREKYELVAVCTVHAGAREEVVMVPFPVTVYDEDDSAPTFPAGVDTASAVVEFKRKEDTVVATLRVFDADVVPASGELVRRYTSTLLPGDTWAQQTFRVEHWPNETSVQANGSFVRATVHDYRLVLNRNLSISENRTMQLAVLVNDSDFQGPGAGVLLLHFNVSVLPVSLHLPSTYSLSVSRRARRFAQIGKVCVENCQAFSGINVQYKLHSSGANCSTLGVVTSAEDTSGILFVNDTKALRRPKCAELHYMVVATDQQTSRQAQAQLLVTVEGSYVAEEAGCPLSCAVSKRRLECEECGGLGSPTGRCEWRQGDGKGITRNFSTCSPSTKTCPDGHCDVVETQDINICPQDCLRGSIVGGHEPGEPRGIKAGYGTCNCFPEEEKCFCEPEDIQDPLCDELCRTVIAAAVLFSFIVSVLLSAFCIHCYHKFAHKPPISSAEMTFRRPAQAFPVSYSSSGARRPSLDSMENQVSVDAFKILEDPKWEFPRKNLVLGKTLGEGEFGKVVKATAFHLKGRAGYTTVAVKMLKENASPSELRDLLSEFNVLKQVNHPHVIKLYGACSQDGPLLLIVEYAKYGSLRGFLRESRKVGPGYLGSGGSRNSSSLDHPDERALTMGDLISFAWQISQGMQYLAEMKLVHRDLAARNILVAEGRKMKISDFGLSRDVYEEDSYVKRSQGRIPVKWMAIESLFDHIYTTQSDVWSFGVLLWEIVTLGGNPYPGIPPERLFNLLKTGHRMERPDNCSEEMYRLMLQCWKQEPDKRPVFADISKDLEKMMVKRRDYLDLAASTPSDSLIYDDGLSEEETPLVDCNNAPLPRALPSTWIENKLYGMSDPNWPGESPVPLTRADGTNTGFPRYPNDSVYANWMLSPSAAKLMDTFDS
# ERBB4 (human), sequence (Q15303 whole entry, looked up): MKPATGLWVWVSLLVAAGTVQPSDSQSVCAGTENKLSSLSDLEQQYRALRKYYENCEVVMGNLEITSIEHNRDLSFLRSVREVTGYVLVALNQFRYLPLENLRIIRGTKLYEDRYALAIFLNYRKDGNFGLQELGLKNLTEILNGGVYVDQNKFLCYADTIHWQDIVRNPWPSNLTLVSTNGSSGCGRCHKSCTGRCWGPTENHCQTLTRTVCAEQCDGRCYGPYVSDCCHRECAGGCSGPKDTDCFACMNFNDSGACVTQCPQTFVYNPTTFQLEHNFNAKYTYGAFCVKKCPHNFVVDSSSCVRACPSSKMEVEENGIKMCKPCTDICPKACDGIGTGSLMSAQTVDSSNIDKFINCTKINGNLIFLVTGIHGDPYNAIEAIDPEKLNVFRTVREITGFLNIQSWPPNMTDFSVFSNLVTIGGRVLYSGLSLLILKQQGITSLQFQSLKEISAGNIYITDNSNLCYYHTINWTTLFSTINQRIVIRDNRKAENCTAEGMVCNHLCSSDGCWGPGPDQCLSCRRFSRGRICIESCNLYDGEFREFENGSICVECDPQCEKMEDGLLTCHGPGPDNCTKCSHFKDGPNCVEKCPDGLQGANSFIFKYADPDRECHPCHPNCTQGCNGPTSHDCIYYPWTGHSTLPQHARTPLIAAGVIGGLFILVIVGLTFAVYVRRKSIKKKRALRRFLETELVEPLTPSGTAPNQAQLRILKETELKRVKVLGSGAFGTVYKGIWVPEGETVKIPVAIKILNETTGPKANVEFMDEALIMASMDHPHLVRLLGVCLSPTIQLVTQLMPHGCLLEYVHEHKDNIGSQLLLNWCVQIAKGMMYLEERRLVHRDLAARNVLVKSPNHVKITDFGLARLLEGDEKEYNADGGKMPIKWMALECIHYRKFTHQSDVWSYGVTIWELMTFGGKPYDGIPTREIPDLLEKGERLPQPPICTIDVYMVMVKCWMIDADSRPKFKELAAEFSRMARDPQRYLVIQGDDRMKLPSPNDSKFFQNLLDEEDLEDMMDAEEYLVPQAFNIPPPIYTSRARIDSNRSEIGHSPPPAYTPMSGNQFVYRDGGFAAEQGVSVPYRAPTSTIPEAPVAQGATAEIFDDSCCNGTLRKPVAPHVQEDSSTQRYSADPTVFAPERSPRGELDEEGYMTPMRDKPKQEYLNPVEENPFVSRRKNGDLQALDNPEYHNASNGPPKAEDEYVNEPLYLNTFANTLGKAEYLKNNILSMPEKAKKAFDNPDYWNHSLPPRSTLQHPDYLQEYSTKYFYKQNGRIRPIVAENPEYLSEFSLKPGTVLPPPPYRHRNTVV
# AXL (human), sequence (P30530 whole entry, looked up): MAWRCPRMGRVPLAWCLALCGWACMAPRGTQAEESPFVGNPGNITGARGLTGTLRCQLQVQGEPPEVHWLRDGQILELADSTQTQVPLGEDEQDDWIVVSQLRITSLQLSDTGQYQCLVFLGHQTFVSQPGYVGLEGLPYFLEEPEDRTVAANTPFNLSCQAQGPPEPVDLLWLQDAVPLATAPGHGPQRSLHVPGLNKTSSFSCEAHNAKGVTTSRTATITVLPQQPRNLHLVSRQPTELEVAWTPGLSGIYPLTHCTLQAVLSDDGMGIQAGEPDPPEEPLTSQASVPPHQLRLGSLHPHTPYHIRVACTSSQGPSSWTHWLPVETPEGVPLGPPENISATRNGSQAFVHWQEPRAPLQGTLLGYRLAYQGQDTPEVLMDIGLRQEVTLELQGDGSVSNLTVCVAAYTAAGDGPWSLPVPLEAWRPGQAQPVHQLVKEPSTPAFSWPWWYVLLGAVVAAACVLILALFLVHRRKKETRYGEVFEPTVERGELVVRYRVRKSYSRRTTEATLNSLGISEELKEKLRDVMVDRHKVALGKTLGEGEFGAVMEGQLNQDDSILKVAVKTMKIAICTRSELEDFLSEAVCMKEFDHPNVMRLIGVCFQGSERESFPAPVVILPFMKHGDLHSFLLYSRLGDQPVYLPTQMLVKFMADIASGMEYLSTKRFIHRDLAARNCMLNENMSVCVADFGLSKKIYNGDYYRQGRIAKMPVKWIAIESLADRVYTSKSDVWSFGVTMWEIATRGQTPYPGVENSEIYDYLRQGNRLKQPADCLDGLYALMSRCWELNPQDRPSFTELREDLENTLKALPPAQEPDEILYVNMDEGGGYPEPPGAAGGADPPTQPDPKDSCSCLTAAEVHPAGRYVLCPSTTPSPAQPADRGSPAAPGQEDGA
structure (smiles),measurement,setting,value
Cc1n[nH]c2c1c(=O)n(CCCN)c1ccc(Cl)cc21,residual activity,[1]; compound 1.0 µM,43%
same,residual activity,[2]; compound 1.0 µM,104%
same,residual activity,[3]; compound 1.0 µM,120%
same,residual activity,[4]; compound 1.0 µM,37%
same,residual activity,[5]; compound 1.0 µM,96%
same,residual activity,[6]; compound 1.0 µM,61%
same,residual activity,[7]; compound 1.0 µM,43%
same,residual activity,[8]; compound 1.0 µM,78%
same,residual activity,[9]; compound 1.0 µM,99%
same,residual activity,[10]; compound 1.0 µM,105%
same,residual activity,[11]; compound 1.0 µM,111%
same,residual activity,[12]; compound 1.0 µM,99%
same,residual activity,[13]; compound 1.0 µM,50%
same,residual activity,[14]; compound 1.0 µM,21%
same,residual activity,[15]; compound 1.0 µM,111%
same,residual activity,[16]; compound 1.0 µM,104%
same,residual activity,[17]; compound 1.0 µM,110%
same,residual activity,[18]; compound 1.0 µM,71%
same,residual activity,[19]; compound 1.0 µM,5%
same,residual activity,[20]; compound 1.0 µM,3%
same,residual activity,[21]; compound 1.0 µM,107%
same,residual activity,[22]; compound 1.0 µM,136%
same,residual activity,[23]; compound 1.0 µM,2%
same,residual activity,[24]; compound 1.0 µM,103%
C[C@@H](Nc1nc2c(C#CC3CC3)c[nH]c(=O)c2c2cc(-c3cn[nH]c3)ccc12)C(C)(C)C,residual activity,[25]; compound 1.0 µM,1%
same,residual activity,[26]; compound 1.0 µM,36%
same,residual activity,[27]; compound 1.0 µM,78%
same,residual activity,[1]; compound 1.0 µM,61%
same,residual activity,[2]; compound 1.0 µM,7%
same,residual activity,[3]; compound 1.0 µM,67%
same,residual activity,[4]; compound 1.0 µM,1%
same,residual activity,[28]; compound 1.0 µM,53%
same,residual activity,[5]; compound 1.0 µM,18%
same,residual activity,[6]; compound 1.0 µM,22%
same,residual activity,[7]; compound 1.0 µM,57%
same,residual activity,[29]; compound 1.0 µM,109%
same,residual activity,[30]; compound 1.0 µM,104%
same,residual activity,[8]; compound 1.0 µM,79%
same,residual activity,[9]; compound 1.0 µM,111%
same,residual activity,[31]; compound 1.0 µM,9%
same,residual activity,[32]; compound 1.0 µM,122%
same,residual activity,[10]; compound 1.0 µM,104%
same,residual activity,[11]; compound 1.0 µM,73%
same,residual activity,[33]; compound 1.0 µM,25%
same,residual activity,[34]; compound 1.0 µM,96%
same,residual activity,[12]; compound 1.0 µM,56%
same,residual activity,[35]; compound 1.0 µM,105%
same,residual activity,[36]; compound 1.0 µM,122%
same,residual activity,[13]; compound 1.0 µM,59%
same,residual activity,[37]; compound 1.0 µM,103%
same,residual activity,[14]; compound 1.0 µM,59%
same,residual activity,[15]; compound 1.0 µM,104%
same,residual activity,[16]; compound 1.0 µM,96%
same,residual activity,[17]; compound 1.0 µM,71%
same,residual activity,[38]; compound 1.0 µM,101%
same,residual activity,[39]; compound 1.0 µM,115%
same,residual activity,[18]; compound 1.0 µM,79%
same,residual activity,[19]; compound 1.0 µM,4%
same,residual activity,[20]; compound 1.0 µM,2%
same,residual activity,[21]; compound 1.0 µM,98%
same,residual activity,[22]; compound 1.0 µM,132%
same,residual activity,[23]; compound 1.0 µM,5%
same,residual activity,[40]; compound 1.0 µM,78%
same,residual activity,[24]; compound 1.0 µM,102%
same,residual activity,[41]; compound 1.0 µM,116%
CC(C)(C)c1nc2c3ccc(F)cc3c3c(=O)[nH]ccc3c2[nH]1,residual activity,[20]; compound 10.0 µM,0%
O=C(N[C@@H](COc1ccc2[nH]c(=O)[nH]c2c1)c1ccccc1)c1cccn(Cc2ccc(F)c(F)c2)c1=O,residual activity,[25]; compound 10.0 µM,108%
same,residual activity,[26]; compound 10.0 µM,107%
same,residual activity,[27]; compound 10.0 µM,88%
same,residual activity,[1]; compound 10.0 µM,106%
same,residual activity,[2]; compound 10.0 µM,107%
same,residual activity,[3]; compound 10.0 µM,97%
same,residual activity,[4]; compound 10.0 µM,100%
same,residual activity,[28]; compound 10.0 µM,110%
same,residual activity,[5]; compound 10.0 µM,107%
same,residual activity,[6]; compound 10.0 µM,96%
same,residual activity,[7]; compound 10.0 µM,121%
same,residual activity,[29]; compound 10.0 µM,111%
same,residual activity,[30]; compound 10.0 µM,104%
same,residual activity,[8]; compound 10.0 µM,105%
same,residual activity,[9]; compound 10.0 µM,118%
same,residual activity,[31]; compound 10.0 µM,90%
same,residual activity,[32]; compound 10.0 µM,69%
same,residual activity,[10]; compound 10.0 µM,107%
same,residual activity,[11]; compound 10.0 µM,99%
same,residual activity,[33]; compound 10.0 µM,92%
same,residual activity,[34]; compound 10.0 µM,97%
same,residual activity,[12]; compound 10.0 µM,92%
same,residual activity,[35]; compound 10.0 µM,110%
same,residual activity,[36]; compound 10.0 µM,97%
same,residual activity,[13]; compound 10.0 µM,95%
same,residual activity,[37]; compound 10.0 µM,113%
same,residual activity,[14]; compound 10.0 µM,98%
same,residual activity,[15]; compound 10.0 µM,112%
same,residual activity,[16]; compound 10.0 µM,111%
same,residual activity,[17]; compound 10.0 µM,105%
same,residual activity,[38]; compound 10.0 µM,108%
same,residual activity,[39]; compound 10.0 µM,98%
same,residual activity,[18]; compound 10.0 µM,89%
same,residual activity,[19]; compound 10.0 µM,132%
same,residual activity,[21]; compound 10.0 µM,82%
same,residual activity,[22]; compound 10.0 µM,129%
same,residual activity,[23]; compound 10.0 µM,124%
same,residual activity,[40]; compound 10.0 µM,105%
same,residual activity,[24]; compound 10.0 µM,120%
same,residual activity,[41]; compound 10.0 µM,104%
